Where a name gives a salt, the structure may show the parent alone.
Assays:
[1] = system: Diet-induced obesity (DIO) mice; assay: Anti-obesity effect test using DIO mouse; assay type: in vivo; settings: for Body weight (g) At start of administration: average at start of administration; for Body weight (g) After 7-day administration: average; for Fecal protein concentration-increasing rate (%): feces of eighth day, vehicle = 100
Protocol: Test Example 3: Anti-Obesity Effect Test Using DIO Mouse
(§1) Diet-induced obesity (DIO) mice (D12451 diet, male, 26-week old) were orally administered with a 0.5% methyl cellulose suspension containing a test compound (30 mg/kg) (compound administration group, five mice per group) or a 0.5% methyl cellulose suspension (compound non-administration group (vehicle), five mice per group) once a day for seven days, and whole feces were collected on the eighth day of administration. Dried feces were dissolved in 0.5 N NaOH, followed by centrifugation at 12,000 rpm. The protein concentration in the supernatant was then quantitatively measured (Lowry method), and the amount of protein contained in 1 g of feces was calculated as the fecal protein concentration (mg/g feces). The fecal protein concentration-increasing rate was calculated by the following expression.
Fecal protein concentration-increasing rate (%)=Fecal protein concentration of compound administration group/Fecal protein concentration of vehicle group X 100
The fecal protein concentration-increasing rate and the averages of the body weights at the start of administration and after administration for seven days are shown in Table 6.
Also, DIO mice (D12451 diet, male, 59-week old) were orally administered with a 0.5% methyl cellulose suspension containing a test compound (20 mg/kg) (compound administration group, five mice per group) or a 0.5% methyl cellulose suspension (compound non-administration group (vehicle), five mice per group) once a day for seven days, and whole feces were collected on the eighth day of administration. The fecal protein concentration (mg/g feces) was calculated by the method described above. The fecal protein concentration-increasing rate and the averages of the body weights at the start of administration and after administration for seven days are shown in Table 7.

[2] = target: T1, Human recombinant enteropeptidase (Homo sapiens, UniProt P98073); assay: Human enteropeptidase inhibitory activity; assay type: biochemical; settings: 1 μM test compound; fluorescence intensity at 2 hours after start of reaction; read-out: Inhibition rate at 1 μM
T1 construct: purchased ITSI-Biosciences LLC #REN-260
T1 sequence (P98073 whole entry): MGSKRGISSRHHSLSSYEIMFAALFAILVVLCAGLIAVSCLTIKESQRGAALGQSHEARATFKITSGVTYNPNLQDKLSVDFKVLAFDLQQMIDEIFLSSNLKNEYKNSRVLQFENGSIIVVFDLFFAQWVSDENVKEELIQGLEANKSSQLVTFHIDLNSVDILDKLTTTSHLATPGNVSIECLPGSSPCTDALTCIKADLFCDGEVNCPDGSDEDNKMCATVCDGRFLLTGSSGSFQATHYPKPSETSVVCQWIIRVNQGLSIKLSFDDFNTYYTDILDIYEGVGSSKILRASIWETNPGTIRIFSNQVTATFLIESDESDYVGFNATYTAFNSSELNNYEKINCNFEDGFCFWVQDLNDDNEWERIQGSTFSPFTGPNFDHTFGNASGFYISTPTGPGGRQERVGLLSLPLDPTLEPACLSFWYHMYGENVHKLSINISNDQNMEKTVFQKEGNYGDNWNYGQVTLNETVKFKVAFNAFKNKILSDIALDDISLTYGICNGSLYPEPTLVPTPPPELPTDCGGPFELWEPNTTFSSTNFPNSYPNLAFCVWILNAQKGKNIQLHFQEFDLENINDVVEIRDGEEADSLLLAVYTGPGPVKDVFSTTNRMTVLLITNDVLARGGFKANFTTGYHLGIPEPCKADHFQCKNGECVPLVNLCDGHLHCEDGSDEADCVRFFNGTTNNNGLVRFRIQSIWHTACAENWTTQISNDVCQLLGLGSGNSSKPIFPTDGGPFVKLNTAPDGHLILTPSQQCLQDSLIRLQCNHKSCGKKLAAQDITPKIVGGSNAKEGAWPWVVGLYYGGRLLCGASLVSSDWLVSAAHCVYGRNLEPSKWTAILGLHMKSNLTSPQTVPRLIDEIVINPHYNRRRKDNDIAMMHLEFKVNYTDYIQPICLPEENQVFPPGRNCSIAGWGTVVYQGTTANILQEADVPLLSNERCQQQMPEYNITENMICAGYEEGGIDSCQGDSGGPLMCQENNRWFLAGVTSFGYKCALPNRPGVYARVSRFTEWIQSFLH
Protocol: Test Example 1: Human Enteropeptidase Inhibitory Activity
Human recombinant enteropeptidase (#REN-260, ITSI-Biosciences LLC) was diluted with an assay buffer (50 mM Tricine, pH 8.0, 0.01 (w/v) %, Tween 20, 10 mM CaCl2)) to prepare a 24 mU/mL enzyme solution. Subsequently, 5FAM-Abu-Gly-Asp-Asp-Asp-Lys-Ile-Val-Gly-Gly-Lys(CPQ2)-Lys-Lys-NH2 (CPC Scientific Inc.) was diluted with the assay buffer to prepare a 2.1 μM substrate solution. A test compound is dissolved in DMSO into a 10 mM solution, and the solution was diluted with the assay buffer to give a compound solution. To a 384-well black plate (#784076, Greiner Bio-One), 5 μL of the compound solution and 5 μL of the substrate solution were added and mixed, and 5 μL of the enzyme solution was then added to the mixture, followed by mixing to start the reaction. The fluorescence intensity was measured with a fluorescence plate reader EnVision (The Perkin-Elmer Corp.) at an excitation wavelength of 485 nm and a fluorescence wavelength of 535 nm. The same reaction as above was performed without the addition of the test compound (test compound non-addition group). Furthermore, the same reaction as above was performed without the addition of the test compound and the enzyme (control group). The inhibition rate was calculated using the fluorescence intensity at 2 hours after the start of the reaction by the following expression:
Inhibition rate (%)=(1−((fluorescence intensity of test compound addition group)−(fluorescence intensity of control group))/((fluorescence intensity of test compound non-addition group)−(fluorescence intensity of control group)))×100

High fat diet-fed mice = assay: Fecal protein concentration-increasing test using high fat diet-fed mouse; assay type: in vivo; settings: Mus musculus, po, 24 h, feces of first day of administration, vehicle group = 100, read-out: Fecal protein concentration-increasing rate; for response vs control in vivo at 30 mg/kg: 30 mg/kg oral
Source text: Test Example 2: Fecal Protein Concentration-Increasing Test Using High Fat Diet-Fed Mouse
as §1, with “High fat diet-fed” for “Diet-induced obesity (DIO)”, “10- to 50-week” for “26-week”, “compound” for “compound (30 mg/kg)”, “(vehicle group),” for “(vehicle),”, “group),” for “group) once a day for seven days,”, “first” for “eighth”
Fecal protein concentration-increasing rate (%)=Fecal protein concentration of compound administration group/Fecal protein concentration of vehicle group×100

[3] = DIO mice 26-week old, 30 mg/kg group
[4] = DIO mice 26-week old, 30 mg/kg oral once a day for seven days
[5] = DIO mice 59-week old, 20 mg/kg group
[6] = DIO mice 59-week old, 20 mg/kg oral once a day for seven days

| Structure (SMILES) | Body weight (g) At start of administration [1, 3] [g] | Body weight (g) After 7-day administration [1, 4] [g] | Fecal protein concentration-increasing rate (%) [1, 4] [%] | Body weight (g) At start of administration [1, 5] [g] | Body weight (g) After 7-day administration [1, 6] [g] | Fecal protein concentration-increasing rate (%) [1, 6] [%] | inhibition at 1 µM [2] [%] | response vs control in vivo at 30 mg/kg (High fat diet-fed mice) [%] | response vs control in vivo at 10 mg/kg (High fat diet-fed mice; 10 mg/kg oral) [%] |
| --- | --- | --- | --- | --- | --- | --- | --- | --- | --- |
| Cl.Cl.N=C(N)Nc1ccc(C(=O)Oc2cc(OCCOCCOc3cc(OC(=O)c4ccc(NC(=N)N)cc4)cc(C(=O)N[C@H](CC(=O)O)C(=O)O)c3)cc(C(=O)N[C@H](CC(=O)O)C(=O)O)c2)cc1 [Example 15, (2R)-2-[[3-[2-[2-[3-[[(1R)-1,2-Dicarboxyethyl]carbamoyl]-5-(4-guanidinobenzoyl)oxyphenoxy]ethoxy]ethoxy]-5-(4-guanidinobenzoyl)oxybenzoyl]amino]butanedioic acid dihydrochloride] | 46.0 | 43.4 | 250 | 56.6 | 54.0 | 227 | 100 | 212 |  |
| N=C(N)Nc1ccc(C(=O)Oc2ccc(CCC(=O)N[C@H](CC(=O)O)C(=O)O)c(OCCOCCOc3cc(OC(=O)c4ccc(NC(=N)N)cc4)ccc3CCC(=O)N[C@H](CC(=O)O)C(=O)O)c2)cc1 [Example 13, (2R)-2-[3-[2-[2-[2-[2-[3-[[(1R)-1,2-Dicarboxyethyl]amino]-3-oxopropyl]-5-(4-guanidinobenzoyl)oxyphenoxy]ethoxy]ethoxy]-4-(4-guanidinobenzoyl)oxyphenyl]propanoylamino]butanedioic acid] |  |  |  |  |  |  | 100 | 150 |  |
| N=C(N)Nc1ccc(C(=O)Oc2cc(OCCOCCOCCOc3cc(OC(=O)c4ccc(NC(=N)N)cc4)cc(C(=O)N[C@@H](CC(=O)O)C(=O)O)c3)cc(C(=O)N[C@@H](CC(=O)O)C(=O)O)c2)cc1 [Example 1, (2S)-2-[[3-[2-[2-[2-[3-[[(1S)-1,2-Dicarboxyethyl]carbamoyl]-5-(4-guanidinobenzoyl)oxyphenoxy]ethoxy]ethoxy]ethoxy]-5-(4-guanidinobenzoyl)oxybenzoyl]amino]butanedioic acid ditrifluoroacetate] |  |  |  |  |  |  | 98 | 159 |  |
| N=C(N)Nc1ccc(C(=O)Oc2ccc(C(=O)N[C@H](CC(=O)O)C(=O)O)c(OCCOCCOc3cc(OC(=O)c4ccc(NC(=N)N)cc4)ccc3C(=O)N[C@H](CC(=O)O)C(=O)O)c2)cc1 [Example 21, (2R)-2-[[2-[2-[2-[2-[[(1R)-1,2-Dicarboxyethyl]carbamoyl]-5-(4-guanidinobenzoyl)oxyphenoxy]ethoxy]ethoxy]-4-(4-guanidinobenzoyl)oxybenzoyl]amino]butanedioic acid dihydrochloride] |  |  |  | 56.7 | 53.6 | 248 | 100 | 203 |  |
| N=C(N)Nc1ccc(C(=O)Oc2cc(OCCOCCOCCOc3cc(OC(=O)c4ccc(NC(=N)N)cc4)cc(C(=O)N[C@H](CC(=O)O)C(=O)O)c3)cc(C(=O)N[C@H](CC(=O)O)C(=O)O)c2)cc1 [Example 6, (2R)-2-[[3-[2-[2-[2-[3-[[(1R)-1,2-Dicarboxyethyl]carbamoyl]-5-(4-guanidinobenzoyl)oxyphenoxy]ethoxy]ethoxy]ethoxy]-5-(4-guanidinobenzoyl)oxybenzoyl]amino]butanedioic acid ditrifluoroacetate] |  |  |  |  |  |  | 100 | 203 |  |
| N=C(N)Nc1ccc(C(=O)Oc2cc(OCCOCCOc3cc(OC(=O)c4ccc(NC(=N)N)cc4)cc(C(=O)NCCS(=O)(=O)O)c3)cc(C(=O)NCCS(=O)(=O)O)c2)cc1 [Example 20, 2-[[3-(4-Guanidinobenzoyl)oxy-5-[2-[2-[3-(4-guanidinobenzoyl)oxy-5-(2-sulfoethylcarbamoyl)phenoxy]ethoxy]ethoxy]benzoyl]amino]ethanesulfonic acid ditrifluoroacetate] |  |  |  |  |  |  | 99 |  | 143 |
| N=C(N)Nc1ccc(C(=O)Oc2ccc(CCC(=O)N[C@@H](CC(=O)O)C(=O)O)c(OCCOCCOCCOc3cc(OC(=O)c4ccc(NC(=N)N)cc4)ccc3CCC(=O)N[C@@H](CC(=O)O)C(=O)O)c2)cc1 [Example 12, (2S)-2-[3-[2-[2-[2-[2-[2-[3-[[(1S)-1,2-Dicarboxyethyl]amino]-3-oxopropyl]-5-(4-guanidinobenzoyl)oxyphenoxy]ethoxy]ethoxy]ethoxy]-4-(4-guanidinobenzoyl)oxyphenyl]propanoylamino]butanedioic acid dihydrochloride] | 45.4 | 44.7 | 280 |  |  |  | 100 | 197 |  |
| N=C(N)Nc1ccc(C(=O)Oc2ccc(OCCOCCOc3ccc(OC(=O)c4ccc(NC(=N)N)cc4)cc3C(=O)N[C@H](CC(=O)O)C(=O)O)c(C(=O)N[C@H](CC(=O)O)C(=O)O)c2)cc1 [Example 19, (2R)-2-[[2-[2-[2-[2-[[(1R)-1,2-Dicarboxyethyl]carbamoyl]-4-(4-guanidinobenzoyl)oxyphenoxy]ethoxy]ethoxy]-5-(4-guanidinobenzoyl)oxybenzoyl]amino]butanedioic acid] |  |  |  |  |  |  | 100 | 215 |  |
| N=C(N)Nc1ccc(C(=O)Oc2cc(OCCOc3cc(OC(=O)c4ccc(NC(=N)N)cc4)cc(C(=O)N[C@H](CC(=O)O)C(=O)O)c3)cc(C(=O)N[C@H](CC(=O)O)C(=O)O)c2)cc1 [Example 16, (2R)-2-[[3-[2-[3-[[(1R)-1,2-Dicarboxyethyl]carbamoyl]-5-(4-Guanidinobenzoyl)oxyphenoxy]ethoxy]-5-(4-guanidinobenzoyl)oxybenzoyl]amino]butanedioic acid dihydrochloride] | 45.7 | 44.7 | 271 |  |  |  | 100 | 245 |  |
| N=C(N)Nc1ccc(C(=O)Oc2cc(OCCOCCOCCOc3cc(OC(=O)c4ccc(NC(=N)N)cc4)cc(C(=O)N[C@H](CCCCN)C(=O)O)c3)cc(C(=O)N[C@H](CCCCN)C(=O)O)c2)cc1 [Example 11, (2R)-6-Amino-2-[[3-[2-[2-[2-[3-[[(1R)-5-amino-1-carboxypentyl]carbamoyl]-5-(4-guanidinobenzoyl)oxyphenoxy]ethoxy]ethoxy]ethoxy]-5-(4-guanidinobenzoyl)oxybenzoyl]amino]hexanoic acid] |  |  |  |  |  |  | 60 | 171 |  |
| N=C(N)Nc1ccc(C(=O)Oc2cc(OCCOc3cc(OC(=O)c4ccc(NC(=N)N)cc4)cc(C(=O)N[C@@H](CC(=O)O)C(=O)O)c3)cc(C(=O)N[C@@H](CC(=O)O)C(=O)O)c2)cc1 [Example 9, (2S)-2-[[3-[2-[3-[[(1S)-1,2-Dicarboxyethyl]carbamoyl]-5-(4-guanidinobenzoyl)oxyphenoxy]ethoxy]-5-(4-guanidinobenzoyl)oxybenzoyl]amino]butanedioic acid] |  |  |  |  |  |  | 100 | 195 |  |

— patent publication US20210403420A1, “BENZOATE COMPOUND” (SCOHIA PHARMA, INC., priority 2018, published 2021)
